Our source for the Kd values is publication PMC4515083, “Selective Targeting of the TPX2 Site of Importin-α Using Fragment-Based Ligand Design” (Chemmedchem, 2015).

SMILES strings stand for the structures. Bounds are passed on as bounds.

The experiment deals with T1, ΔIBB-importin-α (importin-α1, KPNA2) (Mus musculus, UniProt P52293).
T1 construct: modified pET-30a with TEV-cleavable His6/S-tag, tag cleaved; recombinant
Kind of experiment: direct ITC. The experiment is classed as binding. From the text: direct ITC on ΔIBB-importin-α (importin-α1, KPNA2)
For `NCCCC[C@H](NCc1ccc(-c2cccnc2)cc1)C(N)=O` [compound 11], the affinity, expressed as Kd, was 4 ± 0.5 mM. The figure for `NCCCC[C@H](NC(=O)c1ccc(-c2cccnc2)cc1)C(N)=O` [compound 14] is greater than 10 mM; for `NCCCC[C@@H](NCc1ccc(-c2cccnc2)cc1)C(N)=O` [compound 15] it is 3.8 ± 0.4 mM; for `NCCCC[C@H](NCc1cccc(-c2cccnc2)c1)C(N)=O` [compound 16] it is 1.3 ± 0.1 mM. The value for `NCCCC[C@H](NCc1ccc(-c2cccnc2)s1)C(N)=O` [compound 17] was 0.9 ± 0.1 mM.
